According to patent US12649730B2 (MITOIMMUNE THERAPEUTICS INC., priority 2021, dated 2026):
“Also recorded” adds a separate entry of the source.

Tests used:
Assay type in all cases: physicochemical
[1] = Pressurization test for Crystalline Form A; conditions: 3 minutes each at 2, 3 and 4 MPa
Procedure: 100 mg of Crystalline Form A was placed in a die cavity, then made into tablets by pressing for 3 minutes each at pressures of 2, 3 and 4 MPa using an upper punch.

[2] = Stability testing of 5 crystalline forms over 8 weeks at harsh conditions (40° C., 75% relative humidity)
Procedure: Stability testing was carried out over 8 weeks at harsh conditions (40° C., 75%, relative humidity) on the 5 crystalline forms obtained in Example 3.

[3] = Grinding test for Crystalline Form A
Procedure: 30 mg Crystalline Form A was manually ground for 5 minutes in a mortar and pestle. […] 30 mg of Crystalline Form A and […] of EtOH were placed in a mortar and pestle, and manually ground for 5 minutes. […] 30 mg of Crystalline Form A and […] of H2O were placed in a mortar and pestle, and manually ground for 5 minutes.

[4] = Water sorption and desorption study, DVS cycle; conditions: 25° C.
Procedure: Using SMS DVS Advantage 1, 10 mg sample was placed in a mesh stainless steel basket. The overall test cycle comprises scanning two times (sorption and desorption) at 10% RH intervals in a 40 to 90% range (60 to 360 minutes for each humidity level) at a constant temperature (25° C.). Using SMS DVS Advantage 1, 10 mg of Crystalline Form A was placed in a mesh stainless steel basket. The overall test cycle comprises scanning two times (sorption and desorption) at 10% RH intervals in a 40 to 90% range (60 to 360 minutes for each humidity level) at a constant temperature (25° C.). Approximately 0.7% weight increase and absorption and loss relative to sorption level indicates a non-hygroscopic sample. FIG. 38 is an isotherm curve for Crystalline Form A (weight change % v. RH %), and a kinetic curve of weight change % v. time and relative humidity %.

[5] = 40° C./75% RH, 1 week, listed as Crystalline Form XII
[6] = 40° C./75% RH, 2 weeks, listed as Crystalline Form XII
[7] = 40° C./75% RH, 8 weeks, listed as Crystalline Form XII
[8] = Initial, listed as Crystalline Form XII

Row | SMILES | Assay ([2]; Initial) [%] | Assay ([2]; 40° C./75% RH, 1 week) [%] | Purity ([2]; 40° C./75% RH, 1 week) [%] | XRPD Patterns ([2]; 40° C./75% RH, 1 week) | Assay ([2]; 40° C./75% RH, 2 weeks) [%] | Purity ([2]; 40° C./75% RH, 2 weeks) [%] | XRPD Patterns ([2]; 40° C./75% RH, 2 weeks) | Assay ([2]; 40° C./75% RH, 4 weeks) [%] | Purity ([2]; 40° C./75% RH, 4 weeks) [%] | XRPD Patterns ([2]; 40° C./75% RH, 4 weeks) | Assay ([2]; 40° C./75% RH, 8 weeks) [%] | Purity ([2]; 40° C./75% RH, 8 weeks) [%] | XRPD Patterns ([2]; 40° C./75% RH, 8 weeks) | Purity ([2]; Initial) [%] | XRPD Patterns ([2]; Initial) | also measured
1 | O=S1(=O)CCN(Cc2cc(NC3CCOCC3)c3[nH]c(-c4ccccc4)cc3c2)CC1 [Crystalline Form A, 5-[(1,1-dioxido-4-thiomorpholinyl)methyl]-2-phenyl-N-(tetrahydro-2H-pyran-4-yl)-1H-indol-7-amine] | 100.00 |  |  |  |  |  |  |  |  |  |  |  |  |  |  | XRPD analysis after pressing into tablets and grinding [1]: no changes; Stability judged among the 5 crystalline forms ([2]; 40° C., 75% relative humidity, 8 weeks): most stable crystalline form; Assay [2, 5]: 101.17%; Purity [2, 5]: 99.19%; XRPD Patterns [2, 5]: Pattern A; Assay [2, 6]: 102.12%; Purity [2, 6]: 98.69%; XRPD Patterns [2, 6]: Pattern A; Assay [2, 7]: 102.17%; Purity [2, 7]: 99.88%; XRPD Patterns [2, 7]: Pattern A; Purity [2, 8]: 98.85%; XRPD Patterns [2, 8]: Pattern A; XRPD analysis after wet grinding in EtOH ([3]; manually ground 5 minutes in EtOH): no change; XRPD analysis after wet grinding in H2O ([3]; manually ground 5 minutes in H2O): no change; XRPD analysis after dry grinding ([3]; manually ground 5 minutes, mortar and pestle): no change; Hygroscopicity ([4]; DVS, 40 to 90% RH): non-hygroscopic; Weight increase (water sorption) ([4]; DVS, 40 to 90% RH): Approximately 0.7%; XRPD analysis after DVS ([4]; after DVS cycle): no change in crystalline form
2 | O=S1(=O)CCN(Cc2cc(NC3CCOCC3)c3[nH]c(-c4ccccc4)cc3c2)CC1 [Crystalline Form IV, 5-[(1,1-dioxido-4-thiomorpholinyl)methyl]-2-phenyl-N-(tetrahydro-2H-pyran-4-yl)-1H-indol-7-amine] | 100.00 | 101.81 | 99.73 | Pattern A | 105.36 | 99.88 | Pattern A | 99.58 | 99.87 | Pattern A | 104.25 | 99.86 | converted into Crystalline Form XII; also recorded: Pattern A | 99.87 | Pattern IV | 
3 | O=S1(=O)CCN(Cc2cc(NC3CCOCC3)c3[nH]c(-c4ccccc4)cc3c2)CC1 [Crystalline Form V, 5-[(1,1-dioxido-4-thiomorpholinyl)methyl]-2-phenyl-N-(tetrahydro-2H-pyran-4-yl)-1H-indol-7-amine] | 100.00 | 103.86 | 99.60 | Pattern A | 103.99 | 99.21 | Pattern A | 98.50 | 99.16 | Pattern A | 104.75 | 99.36 | converted into Crystalline Form XII; also recorded: Pattern A | 99.37 | Pattern V | 
4 | O=S1(=O)CCN(Cc2cc(NC3CCOCC3)c3[nH]c(-c4ccccc4)cc3c2)CC1 [Crystalline Form VIII, 5-[(1,1-dioxido-4-thiomorpholinyl)methyl]-2-phenyl-N-(tetrahydro-2H-pyran-4-yl)-1H-indol-7-amine] | 100.00 | 106.67 | 99.95 | Pattern A | 102.74 | 99.91 | Pattern A | 105.56 | 99.83 | Pattern A | 107.08 | 100.00 | converted into Crystalline Form XII; also recorded: Pattern A | 99.94 | Pattern VIII | 
5 | O=S1(=O)CCN(Cc2cc(NC3CCOCC3)c3[nH]c(-c4ccccc4)cc3c2)CC1 [Crystalline Form XI, 5-[(1,1-dioxido-4-thiomorpholinyl)methyl]-2-phenyl-N-(tetrahydro-2H-pyran-4-yl)-1H-indol-7-amine] | 100.00 | 95.79 | 99.70 |  | 105.59 | 99.36 |  | 103.58 | 99.56 | Pattern A | 104.04 | 99.58 |  | 99.55 | Pattern XI | 
